≈ marks a conversion by molar mass, not a printed value.
What was measured:
A. fumigatus = A. fumigatus MIC (CLSI M38-A2); details: Aspergillus fumigatus, read-out: Aspergillus MIC (Aspergillus fumigatus MIC50)
C. albicans = test: Minimum Inhibitory Concentration (MIC), C. albicans growth inhibition (CLSI M27-A2); type: cell-based; details: Candida albicans; about 50% growth reduction; approximately 48 h at 35±1° C.; RPMI+MOPS
Description: Compounds were assessed for their ability to inhibit the growth of common strains of fungus, C. albicans using a standardized procedure (CLSI M27-A2). Stock solutions of the test compounds and standards were prepared in DMSO at 1600 μg/mL (C. albicans). Eleven, serial, one-half dilutions of compounds were prepared in 96-well plates in RPMI+MOPS. The assay concentration ranges were 1-0.001 μg/mL (C. albicans). Cell suspensions of C. albicans were prepared and added to each well at concentrations of approximately 3.7×10^3 colony-forming-units per milliliter (cfu/mL). All testing was in duplicate. The inoculated plates were incubated for approximately 48 h at 35±1° C. At the completion of incubation the wells of each plate were evaluated visually for the presence of fungal growth. […] For voriconazole the MIC was the concentration which reduced C. albicans growth by 50% (per CLSI, M27-A2). For QC purposes C. krusei isolate ATCC 6258 (4.0×10^3 cfu/mL) was included in the VOR assay.

Coccidioides posadasii = test: microbe, parasite or virus in culture; type: cell-based; details: 48 h

Structure (SMILES)	MIC50 (A. fumigatus) [µg/mL]	MIC50 (C. albicans) [µg/mL]	MIC50 (Coccidioides posadasii) [µg/mL]
N#Cc1ccc(CC(=O)c2ccc(C#Cc3ccc(C(F)(F)C(O)(Cn4cnnn4)c4ccc(F)cc4F)nc3)cc2)cc1 (racemic) [Example 1, 4-(2-(4-((6-(2-(2,4-difluorophenyl)-1,1-difluoro-2-hydroxy-3-(1H-tetrazol-1-yl)propyl)pyridin-3-yl)ethynyl)phenyl)-2-oxoethyl)benzonitrile]	0.5 (≈ 0.838 µM)	0.004 (≈ 0.00671 µM)	–
N#Cc1ccc(NCc2ccc(C#Cc3ccc(C(F)(F)C(O)(Cn4cnnn4)c4ccc(F)cc4F)nc3)cc2)cc1 (racemic) [Example 2, 4-(4-((6-(2-(2,4-difluorophenyl)-1,1-difluoro-2-hydroxy-3-(1H-tetrazol-1-yl)propyl)pyridin-3-yl)ethynyl)benzylamino)benzonitrile]	1 (≈ 1.71 µM)	0.016 (≈ 0.0274 µM)	–
OC(Cn1cnnn1)(c1ccc(F)cc1F)C(F)(F)c1ccc(C#Cc2ccc(OCc3ccc(C(F)(F)F)s3)cc2)cn1 (racemic) [Example 5, 2-(2,4-difluorophenyl)-1,1-difluoro-3-(1H-tetrazol-1-yl)-1-(5-((4-((5-(trifluoromethyl)thiophen-2-yl)methoxy)phenyl)ethynyl)pyridin-2-yl)propan-2-ol]	–	–	0.12 (≈ 0.189 µM)
OC(Cn1cnnn1)(c1ccc(F)cc1F)C(F)(F)c1ccc(C#Cc2ccc(OCc3ccc(F)s3)cc2)cn1 (racemic) [Example 6, 2-(2,4-difluorophenyl)-1,1-difluoro-1-(5-((4-((5-fluorothiophen-2-yl)methoxy)phenyl)ethynyl)pyridin-2-yl)-3-(1H-tetrazol-1-yl)propan-2-ol]	0.5 (≈ 0.857 µM)	0.008 (≈ 0.0137 µM)	–
OC(Cn1cnnn1)(c1ccc(F)cc1F)C(F)(F)c1ccc(C#Cc2ccc(CNc3ccc(Cl)cc3)cc2)cn1 (racemic) [Example 7, 1-(5-((4-((4-chlorophenylamino)methyl)phenyl)ethynyl)pyridin-2-yl)-2-(2,4-difluorophenyl)-1,1-difluoro-3-(1H-tetrazol-1-yl)propan-2-ol]	–	–	0.12 (≈ 0.202 µM)
OC(Cn1cnnn1)(c1ccc(F)cc1F)C(F)(F)c1ccc(C#Cc2ccc(CNc3ccc(F)cc3)cc2)cn1 (racemic) [Example 8, 2-(2,4-difluorophenyl)-1,1-difluoro-1-(5-((4-((4-fluorophenylamino)methyl)phenyl)ethynyl)pyridin-2-yl)-3-(1H-tetrazol-1-yl)propan-2-ol]	0.5 (≈ 0.867 µM)	0.004 (≈ 0.00694 µM)	–
CN(C)Cc1ccc(COc2ccc(C#Cc3ccc(C(F)(F)C(O)(Cn4cnnn4)c4ccc(F)cc4F)nc3)cc2)cc1 (racemic) [Example 11, 2-(2,4-difluorophenyl)-1-(5-((4-(4-((dimethylamino)methyl)benzyloxy)phenyl)ethynyl)pyridin-2-yl)-1,1-difluoro-3-(1H-tetrazol-1-yl)propan-2-ol]	0.5 (≈ 0.811 µM)	0.016 (≈ 0.0259 µM)	–
OC(Cn1cnnn1)(c1ccc(F)cc1F)C(F)(F)c1ccc(C#Cc2ccc(OCc3ccc(Cn4cccn4)cc3)cc2)cn1 (racemic) [Example 13]	0.25 (≈ 0.391 µM)	0.016 (≈ 0.025 µM)	–
C[C@@H](c1ncncc1F)[C@](O)(Cn1cncn1)c1ccc(F)cc1F [Voriconazole, voriconazole, reference compound]	0.25 (≈ 0.716 µM)	0.016 (≈ 0.0458 µM)	–

— patent US9688671B2, “Metalloenzyme inhibitor compounds” (Viamet Pharmaceuticals, Inc., priority 2013, dated 2017)
